# Source: patent publication US20250296959A1, “B7-H3 TARGETING PEPTIDES AND CONSTRUCTS THEREOF” (Mariana Oncology Inc., priority 2024, published 2025)
# Starred links: 1 amine or outer side, 2 acyl side, 3 side chain; linkers in the order of their positions; H or OH if unused. Positions of bridges follow the written chain, without caps; N, C: chain ends. Non-standard residues stand in square brackets, D forms with d. Residues, ends and D or L forms follow the SMILES beside them. Groups on a side chain read outwards from the residue. *: point of attachment. X7 = O=C(O)CN1CCN(CC(=O)O)CCN(CC(=O)NCCOCCOCCOCCOCCOCCOCCOCCOCC(=O)*)CCN(CC(=O)O)CC1; X9 = CC(=O)N[C@@H](CCC(C)C)C(O)N([C@@H](Cc1ccc(O)cc1)C(=O)[*:2])[*:1]; Ala(1-CH2CO2H-4-piperidyl) = N[C@@H](CC1CCN(CC(=O)O)CC1)C(=O)O; Ala(piperidin-4-yl) = O=C([C@H](CC1CCN([*:3])CC1)N[*:1])[*:2]; DOTA = O=C(O)CN1CCN(CC(=O)O)CCN(CC(=O)*)CCN(CC(=O)O)CC1; Phe(4-NHCONH2) = NC(=O)Nc1ccc(C[C@H](N)C(=O)O)cc1; Trp(5-F) = N[C@@H](Cc1c[nH]c2ccc(F)cc12)C(=O)O; X1 = C[C@@H](c1ccccc1)[C@H](N[*:1])C(=O)[*:2]; PEG8 = NCCOCCOCCOCCOCCOCCOCCOCCOCCC(=O)O; γGlu = O=C(O)[C@H](CCC(=O)[*:2])N[*:1]; 1Nal = N[C@@H](Cc1cccc2ccccc12)C(=O)O; Ala(4-THP) = N[C@@H](CC1CCOCC1)C(=O)O; Phe(2-Me) = Cc1ccccc1C[C@H](N)C(=O)O; Val(3-OH) = CC(C)(O)[C@H](N)C(=O)O; hCha = N[C@@H](CCC1CCCCC1)C(=O)O; 4Pal = N[C@@H](Cc1ccncc1)C(=O)O; Cha = N[C@@H](CC1CCCCC1)C(=O)O; PEG4 = NCCOCCOCCOCCOCCC(=O)O; Tle = CC(C)(C)[C@H](N)C(=O)O; hLeu = CC(C)CC[C@H](N)C(=O)O; Nle = CCCC[C@H](N)C(=O)O; Sar = CNCC(=O)O
# Molecular target: T1, human 4lg B7-H3 (Homo sapiens, UniProt Q5ZPR3)
# T1 sequence (Q5ZPR3 29-534): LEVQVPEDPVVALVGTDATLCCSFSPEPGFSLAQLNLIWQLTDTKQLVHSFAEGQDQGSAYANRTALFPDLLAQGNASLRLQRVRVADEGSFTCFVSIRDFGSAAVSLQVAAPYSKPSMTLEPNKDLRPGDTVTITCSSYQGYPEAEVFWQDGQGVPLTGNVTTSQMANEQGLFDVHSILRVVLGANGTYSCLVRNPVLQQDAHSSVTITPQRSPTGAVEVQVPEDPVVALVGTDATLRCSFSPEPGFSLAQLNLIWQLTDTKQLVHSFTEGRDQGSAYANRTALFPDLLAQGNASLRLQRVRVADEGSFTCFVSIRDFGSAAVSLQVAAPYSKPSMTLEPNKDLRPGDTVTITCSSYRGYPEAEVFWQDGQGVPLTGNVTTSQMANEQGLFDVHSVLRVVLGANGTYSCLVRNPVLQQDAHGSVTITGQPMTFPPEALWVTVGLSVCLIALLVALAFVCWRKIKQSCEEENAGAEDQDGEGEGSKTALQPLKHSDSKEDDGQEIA
# Test: Affinity determination by surface plasmon resonance (SPR) to 4Ig B7-H3
# Conditions: 4Ig B7-H3
# [1] = SPR KD—25° C., 25° C. flow cell temperature
# [2] = SPR KD—37° C., 37° C. flow cell temperature
Compound,Kd [1],Kd [2]
"CC(=O)N[C@@H](CCC(C)C)C(=O)N[C@@H](Cc1ccc(O)cc1)C(=O)N[C@H]1CSSC[C@@H](C(=O)N[C@@H](Cc2c[nH]c3ccc(F)cc23)C(=O)N[C@@H](Cc2ccccc2C)C(=O)N[C@H](C(=O)N[C@H](CCCCNC(=O)CN2CCN(CC(=O)O)CCN(CC(=O)O)CCN(CC(=O)O)CC2)C(N)=O)[C@@H](C)O)NC(=O)[C@H](Cc2ccc(O)cc2)NC(=O)[C@H](C(C)C)NC(=O)[C@H](CC(=O)O)NC(=O)[C@H](Cc2ccc(O)cc2)NC(=O)[C@H](CCCCN)NC(=O)CNC(=O)[C@H](C(C)C)NC1=O [compound 165, Ac-hLeu-Y-C-V-G-K-Y-D-V-Y-C-5FW-2MePhe-Thr-dLys(DOTA)-CONH2] (Ac-[hLeu]YCVGKYDVYC[Trp(5-F)][Phe(2-Me)]T[dK](DOTA)-NH2; disulfide 3-11)",1 to 10 nM,–
"CC(=O)N[C@@H](CCC(C)C)C(=O)N[C@@H](Cc1ccc(O)cc1)C(=O)N[C@H]1CSSC[C@@H](C(=O)N[C@@H](Cc2c[nH]c3ccc(F)cc23)C(=O)N[C@@H](Cc2ccccc2)C(=O)N[C@H](C(=O)O)[C@@H](C)O)NC(=O)[C@H](Cc2ccc(O)cc2)NC(=O)[C@H](C(C)C)NC(=O)[C@H](CC(=O)O)NC(=O)[C@H](CC2CCN(CC(=O)O)CC2)NC(=O)[C@H](CCCCNC(=O)CN2CCN(CC(=O)O)CCN(CC(=O)O)CCN(CC(=O)O)CC2)NC(=O)CNC(=O)[C@H](C(C)(C)C)NC1=O [compound 326, Ac-hLeu-Y-C-Tbg-G-Lys(DOTA)-Pip(CH2COOH)Ala-D-V-Y-C-5FW-F-Thr-COOH] (Ac-[hLeu]YC[Tle]GK(DOTA)[Ala(1-CH2CO2H-4-piperidyl)]DVYC[Trp(5-F)]FT-OH; disulfide 3-11)",–,10 to 100 nM
"CC(=O)N[C@@H](CCC1CCCCC1)C(=O)N[C@@H](Cc1ccc(O)cc1)C(=O)N[C@H]1CSSC[C@@H](C(=O)N[C@@H](Cc2c[nH]c3ccc(F)cc23)C(=O)N[C@@H](Cc2ccccc2)C(=O)N[C@H](C(=O)N[C@H](C)C(=O)O)C(C)(C)O)NC(=O)[C@H](Cc2ccc(O)cc2)NC(=O)[C@H](C(C)C)NC(=O)[C@H](CC(=O)O)NC(=O)[C@H](CC2CCOCC2)NC(=O)[C@H](CC2CCN(C(=O)CC[C@H](NC(=O)CN3CCN(CC(=O)O)CCN(CC(=O)O)CCN(CC(=O)O)CC3)C(=O)O)CC2)NC(=O)CNC(=O)[C@H](C(C)(C)C)NC1=O [compound 486, Ac-hCha-Y-C-Tbg-G-Pip(gE-DOTA)Ala-ThpA-D-V-Y-C-5FW-F-hydroxyVal-dAla-COOH] (Ac-[hCha]YC[Tle]G[Ala(piperidin-4-yl)]([γGlu-DOTA])[Ala(4-THP)]DVYC[Trp(5-F)]F[Val(3-OH)][dA]-OH; disulfide 3-11)",–,< 1 nM
"CSCC[C@H](NC(C)=O)C(=O)N[C@@H](Cc1ccc(O)cc1)C(=O)N[C@H]1CSSC[C@@H](C(=O)N[C@@H](Cc2c[nH]c3ccccc23)C(=O)N[C@@H](Cc2ccccc2)C(N)=O)NC(=O)[C@H](Cc2ccc(O)cc2)NC(=O)[C@H](C(C)C)NC(=O)[C@H](CC(=O)O)NC(=O)[C@H](Cc2ccc(O)cc2)NC(=O)[C@H](CCCCN)NC(=O)CNC(=O)[C@H](C(C)C)NC1=O [compound 1, Ac-M-Y-C-V-G-K-Y-D-V-Y-C-W-F-CONH2] (Ac-MYCVGKYDVYCWF-NH2; disulfide 3-11)",100 to 300 nM,100 to 300 nM
"CC(=O)N[C@@H](CCC(C)C)C(O)N[C@@H](Cc1ccc(O)cc1)C(=O)N[C@H]1CSSC[C@@H](C(=O)N[C@@H](Cc2cccc3ccccc23)C(=O)N[C@@H](Cc2ccccc2)C(=O)N2CCC[C@H]2C(=O)N[C@H](CCCCNC(=O)COCCOCCOCCOCCOCCOCCOCCOCCNC(=O)CN2CCN(CC(=O)O)CCN(CC(=O)O)CCN(CC(=O)O)CC2)C(N)=O)NC(=O)[C@H](Cc2ccc(O)cc2)NC(=O)[C@H](C(C)C)NC(=O)[C@H](CC(=O)O)NC(=O)[C@H](CC2CCCCC2)NC(=O)[C@H](CC2CCNCC2)NC(=O)CNC(=O)[C@H](C(C)(C)C)NC1=O (stereo partly drawn) [compound 281, Ac-hLeu-Y-C-Tbg-G-PipAla-CHA-D-V-Y-C-1Nal-F-Pro-dLys(PEG8-DOTA)-CONH2] (H-[X9]C[Tle]G[Ala(piperidin-4-yl)][Cha]DVYC[1Nal]FP[dK](X7)-NH2; disulfide 2-10)",1 to 10 nM,–
"CC(=O)N[C@@H](CCC(C)C)C(=O)N[C@@H](Cc1ccc(O)cc1)C(=O)N[C@H]1CSSC[C@@H](C(=O)N[C@@H](Cc2c[nH]c3ccc(F)cc23)C(=O)N[C@@H](Cc2ccccc2C)C(=O)N[C@H](C(=O)N[C@H](CCCCNC(=O)CN2CCN(CC(=O)O)CCN(CC(=O)O)CCN(CC(=O)O)CC2)C(=O)O)C(C)(C)O)NC(=O)[C@H](Cc2ccc(O)cc2)NC(=O)[C@H](C(C)C)NC(=O)[C@H](CC(=O)O)NC(=O)[C@H](CC2CCOCC2)NC(=O)[C@H](CC2CCNCC2)NC(=O)CNC(=O)[C@H](C(C)(C)C)NC1=O [compound 456, Ac-hLeu-Y-C-Tbg-G-PipAla-ThpA-D-V-Y-C-5FW-2MePhe-hydroxyVal-dLys(DOTA)-COOH] (Ac-[hLeu]YC[Tle]G[Ala(piperidin-4-yl)][Ala(4-THP)]DVYC[Trp(5-F)][Phe(2-Me)][Val(3-OH)][dK](DOTA)-OH; disulfide 3-11)",–,< 1 nM
"CC(=O)N[C@@H](CCC(C)C)C(=O)N[C@@H](Cc1ccc(O)cc1)C(=O)N[C@H]1CSSC[C@@H](C(=O)N[C@@H](Cc2c[nH]c3ccc(F)cc23)C(=O)N[C@H](C(=O)N[C@H](C(=O)N[C@H](CCCCNC(=O)CCOCCOCCOCCOCCNC(=O)CN2CCN(CC(=O)O)CCN(CC(=O)O)CCN(CC(=O)O)CC2)C(=O)O)C(C)(C)O)[C@@H](C)c2ccccc2)NC(=O)[C@H](Cc2ccc(NC(N)=O)cc2)NC(=O)[C@H](C(C)C)NC(=O)[C@H](CC(=O)O)NC(=O)[C@H](CC2CCOCC2)NC(=O)[C@H](CC2CCNCC2)NC(=O)CNC(=O)[C@H](C(C)(C)C)NC1=O [compound 500, Ac-hLeu-Y-C-Tbg-G-PipAla-ThpA-D-V-Aph(Cbm)-C-5FW-[(2S, 3S)beta-Me-Phe]-hydroxyVal-dLys(PEG4-DOTA)-COOH] (Ac-[hLeu]YC[Tle]G[Ala(piperidin-4-yl)][Ala(4-THP)]DV[Phe(4-NHCONH2)]C[Trp(5-F)][X1][Val(3-OH)][dK]([PEG4-DOTA])-OH; disulfide 3-11)",–,< 1 nM
"CCCC[C@H](NC(=O)CCOCCOCCOCCOCCOCCOCCOCCOCCNC(=O)CN1CCN(CC(=O)O)CCN(CC(=O)O)CCN(CC(=O)O)CC1)C(=O)N[C@@H](Cc1ccc(O)cc1)C(=O)N[C@H]1CSSC[C@@H](C(=O)N[C@@H](Cc2c[nH]c3ccccc23)C(=O)N[C@@H](Cc2ccccc2)C(=O)N[C@H](C(N)=O)[C@@H](C)O)NC(=O)[C@H](Cc2ccc(O)cc2)NC(=O)[C@H](C(C)C)NC(=O)[C@H](CC(=O)O)NC(=O)[C@H](Cc2ccc(O)cc2)NC(=O)[C@H](CCCCN)NC(=O)CNC(=O)[C@H](C(C)C)NC1=O [compound 94, DOTA-PEG8-Nle-Y-C-V-G-K-Y-D-V-Y-C-W-F-Thr-CONH2] ({DOTA-PEG8}-[Nle]YCVGKYDVYCWFT-NH2; disulfide 3-11)",10 to 100 nM,–
"CC(=O)N[C@@H](CCC(C)C)C(=O)N[C@@H](Cc1ccc(O)cc1)C(=O)N[C@H]1CSSC[C@@H](C(=O)N[C@@H](Cc2c[nH]c3ccc(F)cc23)C(=O)N[C@H](C(=O)N[C@H](C(=O)N[C@H](CCCCNC(=O)CN2CCN(CC(=O)O)CCN(CC(=O)O)CCN(CC(=O)O)CC2)C(N)=O)C(C)(C)O)[C@@H](C)c2ccccc2)NC(=O)[C@H](Cc2ccc(O)cc2)NC(=O)[C@H](C(C)C)NC(=O)[C@H](CC(=O)O)NC(=O)[C@H](CC2CCOCC2)NC(=O)[C@H](CC2CCNCC2)NC(=O)CNC(=O)[C@H](C(C)(C)C)NC1=O [compound 502, Ac-hLeu-Y-C-Tbg-G-PipAla-ThpA-D-V-Y-C-5FW-[(2S, 3S)beta-Me-Phe]-hydroxyVal-dLys(DOTA)-CONH2] (Ac-[hLeu]YC[Tle]G[Ala(piperidin-4-yl)][Ala(4-THP)]DVYC[Trp(5-F)][X1][Val(3-OH)][dK](DOTA)-NH2; disulfide 3-11)",–,< 1 nM
"CC(=O)N[C@@H](CCC(C)C)C(=O)N[C@@H](Cc1ccc(O)cc1)C(=O)N[C@H]1CSSC[C@@H](C(=O)N[C@@H](Cc2c[nH]c3ccc(F)cc23)C(=O)N[C@@H](Cc2ccccc2)C(=O)N[C@H](C(N)=O)C(C)(C)O)NC(=O)[C@H](Cc2ccc(O)cc2)NC(=O)[C@H](C(C)C)NC(=O)[C@H](CC(=O)O)NC(=O)[C@H](Cc2ccncc2)NC(=O)[C@H](CCCCNC(=O)CN2CCN(CC(=O)O)CCN(CC(=O)O)CCN(CC(=O)O)CC2)NC(=O)CNC(=O)[C@H](C(C)C)NC1=O [compound 229, Ac-hLeu-Y-C-V-G-Lys(DOTA)-4PyA-D-V-Y-C-5FW-F-hydroxyVal-CONH2] (Ac-[hLeu]YCVGK(DOTA)[4Pal]DVYC[Trp(5-F)]F[Val(3-OH)]-NH2; disulfide 3-11)",< 1 nM,–
"CC(=O)N[C@@H](CCC(C)C)C(=O)N[C@@H](Cc1ccc(O)cc1)C(=O)N[C@H]1CSSC[C@@H](C(=O)N[C@@H](Cc2c[nH]c3ccc(F)cc23)C(=O)N[C@@H](Cc2ccccc2)C(=O)N[C@H](C(=O)N[C@H](CCCCNC(=O)CN2CCN(CC(=O)O)CCN(CC(=O)O)CCN(CC(=O)O)CC2)C(=O)O)C(C)(C)O)NC(=O)[C@H](Cc2ccc(O)cc2)NC(=O)[C@H](C(C)C)NC(=O)[C@H](CC(=O)O)NC(=O)[C@H](CC2CCOCC2)NC(=O)[C@H](CCCCN)NC(=O)CN(C)C(=O)[C@H](C(C)C)NC1=O [compound 347, Ac-hLeu-Y-C-V-Sar-K-ThpA-D-V-Y-C-5FW-F-hydroxyVal-dLys(DOTA)-COOH] (Ac-[hLeu]YCV[Sar]K[Ala(4-THP)]DVYC[Trp(5-F)]F[Val(3-OH)][dK](DOTA)-OH; disulfide 3-11)",–,< 1 nM
